Measurements published in the Deep4Chem optical property database.
One block for each molecule: values may come before it.

Test: solvent given as SMILES

SMILES: CCCCCCC(CCCCCC)N1C(=O)c2cccc3c(-c4cc(OC)c(OC)c(OC)c4)ccc(c23)C1=O
- emission maximum (in CCCCCC): 440.2 nm
- emission maximum (in CCCCCCCCCCCCCC): 442.3 nm
- emission maximum (in CCCCCCCCCCCO): 526.4 nm
- emission maximum (in CCCCO): 572 nm
- emission maximum (in CN(C)C=O): 618.8 nm
- emission maximum (in Cc1ccccc1): 492.4 nm
- emission maximum (in ClC(Cl)Cl): 525.1 nm

SMILES: CCCCCCN(c1ccccc1)c1ccc2c(c1)C(CC)(CC)c1cc(/C=C/c3ccc(/C=C(\C#N)C(=O)O)s3)ccc1-2
- emission maximum (in C1CCOC1): 651 nm
- emission maximum (in C1COCCO1): 620 nm
- emission maximum (in CC#N): 554 nm
- emission maximum (in CC(C)=O): 574 nm
- emission maximum (in CCOC(C)=O): 654 nm
- emission maximum (in CN(C)C=O): 605 nm
- emission maximum (in CS(C)=O): 627 nm
- emission maximum (in ClCCl): 594 nm

SMILES: CC1=CC(c2ccc(N(C)C)cc2)=[N+]2C1=Nc1c(C)cc(-c3ccc(N(C)C)cc3)n1[B-]2(F)F
- emission maximum (in C1CCOC1): 791 nm
- emission maximum (in CS(C)=O): 822 nm
- emission maximum (in Cc1ccccc1): 779 nm

SMILES: COCCC1=Cc2nc1ccc1[nH]c(cc1CCOC)c1nc(ccc3[nH]c2cc3CCOC)C(CCOC)=C1
- emission maximum (in Cc1ccccc1): 642 nm

SMILES: CN(C)c1ccc(/C=C/c2nc3ccccc3s2)cc1
- emission maximum (in C1CCCCC1): 447 nm
- emission maximum (in C1CCOC1): 482 nm
- emission maximum (in C1COCCO1): 467 nm
- emission maximum (in CC#N): 504 nm
- emission maximum (in CC(C)O): 493 nm
- emission maximum (in CCCCCC): 445 nm
- emission maximum (in CCCCCCC): 446 nm
- emission maximum (in CCO): 498 nm
- emission maximum (in CCOC(C)=O): 477 nm
- emission maximum (in CCOCC): 460 nm
- emission maximum (in CN(C)C=O): 504 nm
- emission maximum (in CO): 507 nm
- emission maximum (in CS(C)=O): 513 nm
- emission maximum (in O): 516 nm
- emission maximum (in OCC(O)CO): 530 nm

SMILES: COC(=O)CN1C(=O)c2cc3ccc(N(C)C)cc3cc2C1=O
- emission maximum (in C1CCOC1): 510 nm
- emission maximum (in CC#N): 549 nm
- emission maximum (in CC(C)=O): 532 nm
- emission maximum (in CCO): 584 nm
- emission maximum (in Cc1ccccc1): 491 nm
- emission maximum (in ClC(Cl)Cl): 509 nm

SMILES: F[B-]1(F)OC(C#Cc2ccccc2)=CC(c2ccccc2)=[O+]1
- emission maximum (in ClCCl): 420 nm

SMILES: CC(C)(C)NS(=O)(=O)c1ccc2c(c1)C(=O)/C(=C1\Sc3ccc(S(=O)(=O)NC(C)(C)C)cc3C1=O)S2
- emission maximum (in C1COCCO1): 589 nm
- emission maximum (in CN(C)C=O): 604 nm
- emission maximum (in CS(C)=O): 618 nm

SMILES: Brc1ccc(-c2pc3ccccc3s2)cc1 (centres undefined)
- emission maximum (in CC#N): 439 nm

SMILES: CN(C)c1ncc2nc(C#N)n(Cc3ccccc3)c2n1
- emission maximum (in C1COCCO1): 424 nm
- emission maximum (in CC#N): 440 nm
- emission maximum (in CO): 456 nm
- emission maximum (in ClCCl): 429 nm

SMILES: Oc1ccccc1-c1nc2c3ccccc3c3ccccc3c2o1
- emission maximum (in Cc1ccccc1): 367 nm

SMILES: COc1ccc(C2=C3C(/C=C/c4cc(OC)c(OC)c(OC)c4)=C(C=O)C(C)=[N+]3[B-](F)(F)n3c(C)c(C=O)c(C=Cc4cc(OC)c(OC)c(OC)c4)c32)cc1
- emission maximum (in ClCCl): 673 nm

SMILES: CN(C)c1ccc2cc3ccc(N(C)C)cc3nc2c1
- emission maximum (in O): 530 nm

SMILES: N#Cc1cc2ccc(cc2)c2cccc3cccc(c4ccc(cc4)cc(C#N)c4ccc(cc4)c4cccc5cccc(c6ccc1cc6)c54)c32
- emission maximum (in Cc1ccccc1): 496 nm

SMILES: CC(C)(C)c1ccc(-c2nc3c4ccc(-c5c6ccccc6cc6ccccc56)cc4c4cc(-c5c6ccccc6cc6ccccc56)ccc4c3n2-c2ccc(C(C)(C)C)cc2)cc1
- emission maximum (in C1CCOC1): 428 nm
- emission maximum (in C1COCCO1): 429 nm
- emission maximum (in CC#N): 455 nm
- emission maximum (in CCCCCC): 419 nm
- emission maximum (in CCCCOCCCC): 424 nm
- emission maximum (in CCN(CC)CC): 421 nm
- emission maximum (in CCOC(C)=O): 429 nm
- emission maximum (in CCOCC): 424 nm
- emission maximum (in CN(C)C=O): 451 nm
- emission maximum (in Cc1ccccc1): 428 nm
- emission maximum (in ClC=C(Cl)Cl): 429 nm
- emission maximum (in ClCCl): 442 nm

SMILES: COc1ccc2c(c1)c(C#N)c(C#N)c1cc(OC)ccc12
- emission maximum (in ClC(Cl)Cl): 440 nm

SMILES: CC1=CC(C)=[N+]2C1=C(c1ccc(I)cc1)c1c(C)cc(C)n1[B-]2(F)F
- emission maximum (in ClC(Cl)Cl): 517.73 nm

SMILES: COc1ccc(-c2ccc(OC)cc2)cc1
- emission maximum (in C1CCCCC1): 363.77 nm

SMILES: Cc1cc(N2c3ccccc3[Si](c3ccccc3)(c3ccccc3)c3ccccc32)c(C)cc1-c1nc(-c2ccccc2)nc(-c2ccccc2)n1
- emission maximum (in Cc1ccccc1): 465 nm
- emission maximum (in O=P(c1ccccc1)(c1ccccc1)c1ccccc1Oc1ccccc1P(=O)(c1ccccc1)c1ccccc1): 465 nm

SMILES: CC1=[N+]2C(=C(c3ccc(-c4c5ccccc5c(-c5ccccc5)c5ccccc45)cc3)c3ccc(C)n3[B-]2(F)F)C=C1
- emission maximum (in CC#N): 523 nm
- emission maximum (in CCCCCC): 526 nm
- emission maximum (in CCO): 526 nm
- emission maximum (in CN(C)C=O): 529 nm
- emission maximum (in Cc1ccccc1): 532 nm
- emission maximum (in ClCCl): 526 nm

SMILES: c1ccc2c(c1)nc1ccccn12
- emission maximum (in CC#N): 414 nm

SMILES: CN(C)c1ccc(/C=C/C=C2\CC/C(=C\C=C\c3ccc(N(C)C)cc3)C2=O)cc1
- emission maximum (in C1CCCCC1): 500 nm
- emission maximum (in CC#N): 717 nm
- emission maximum (in CC(C)=O): 694 nm
- emission maximum (in CC(C)O): 718 nm
- emission maximum (in CCCCCC): 496 nm
- emission maximum (in CCCCO): 739 nm
- emission maximum (in CCCO): 740 nm
- emission maximum (in CCO): 744 nm
- emission maximum (in CCOC(C)=O): 644 nm
- emission maximum (in CCOCC): 586 nm
- emission maximum (in CN(C)C=O): 715 nm
- emission maximum (in CO): 735 nm
- emission maximum (in CS(C)=O): 727 nm
- emission maximum (in Cc1ccccc1): 553 nm
- emission maximum (in ClC(Cl)(Cl)Cl): 537 nm
- emission maximum (in ClCCl): 672 nm
- emission maximum (in OCC(F)(F)F): 764 nm
- emission maximum (in S=C=S): 568 nm
- emission maximum (in c1ccccc1): 567 nm
- emission maximum (in c1ccncc1): 681 nm

SMILES: CCC(C)Nc1c2ccc(=[N+]3CCCCC3)cc-2oc2cc(N3CCCCC3)ccc12 (centres undefined)
- emission maximum (in ClCCl): 537 nm

SMILES: CN(C)CCNCc1c2ccccc2cc2ccccc12
- emission maximum (in C1CCCCC1): 388 nm
- emission maximum (in C1CCOC1): 413 nm
- emission maximum (in CC#N): 389 nm
- emission maximum (in CC(C)=O): 387 nm
- emission maximum (in CCO): 410 nm
- emission maximum (in CN(C)C=O): 414 nm
- emission maximum (in CO): 388 nm
- emission maximum (in ClC(Cl)Cl): 417 nm

SMILES: COc1ccc(C2=C3C(C)=CC(C)=[N+]3[B-](F)(F)n3c(/C=C/c4ccc(N(C)C)cc4)cc(C)c32)cc1
- emission maximum (in C1CCCCC1): 612 nm
- emission maximum (in C1CCOC1): 664 nm
- emission maximum (in C1COCCO1): 648 nm
- emission maximum (in CC1CCCCC1): 612 nm
- emission maximum (in CC#N): 717 nm
- emission maximum (in CC(C)=O): 695 nm
- emission maximum (in CC(C)OC(C)C): 629 nm
- emission maximum (in CCC#N): 710 nm
- emission maximum (in CCCC#N): 695 nm
- emission maximum (in CCCCO): 678 nm
- emission maximum (in CCCCOCCCC): 627 nm
- emission maximum (in CCOC(C)=O): 665 nm
- emission maximum (in CCOCC): 641 nm
- emission maximum (in CN(C)C=O): 718 nm
- emission maximum (in CO): 696 nm
- emission maximum (in CS(C)=O): 737 nm
- emission maximum (in Cc1ccccc1): 640 nm
- emission maximum (in ClC(Cl)Cl): 656 nm

SMILES: O=C1/C(=C2\Sc3ccc(S(=O)(=O)O)cc3C2=O)Sc2ccc(S(=O)(=O)O)cc21
- emission maximum (in C1COCCO1): 587 nm
- emission maximum (in CN(C)C=O): 613 nm
- emission maximum (in CO): 629 nm
- emission maximum (in CS(C)=O): 629 nm
- emission maximum (in O): 644 nm

The next lines start with the values.

- emission maximum (in ClC(Cl)Cl): 710 nm
SMILES: COc1ccc(N(c2ccc(OC)cc2)c2ccc(-c3ccc(-c4ccc(-c5ccc(-c6ccc(N(c7ccc(OC)cc7)c7ccc(OC)cc7)cc6)s5)c5nsnc45)s3)cc2)cc1

- emission maximum (in ClC(Cl)Cl): 383 nm
SMILES: CC[Si](CC)(CC)c1cc2ccc3cccc4ccc(c1C(=O)NC(C)(C)C)c2c34

- emission maximum (in ClCCl): 682 nm
SMILES: CC(C)c1cccc(C(C)C)c1N1C(=O)c2ccc3c(-c4ccc(C(=O)O)cc4)c4c5ccc6c7c(ccc(c(-c8ccc(C(=O)O)cc8)c4c4ccc(c2c34)C1=O)c75)C(=O)N(c1c(C(C)C)cccc1C(C)C)C6=O

- emission maximum (in ClCCl): 498 nm
SMILES: COc1ccc2c(c1)c1cc(OC)ccc1c1c2c2c(C(=O)NC(C)(C)C)ccc(C(=O)NC(C)(C)C)c2c2c3ccc(OC)cc3c3cc(OC)ccc3c21

- emission maximum (in CC#N): 604 nm
SMILES: Cc1ccc(S(=O)(=O)Nc2cc(-c3ccc(N(C)C)cc3)sc2/C=C/c2ccccc2)cc1

- emission maximum (in C1CCCCC1): 554 nm
- emission maximum (in C1CCOC1): 601 nm
- emission maximum (in CC#N): 613 nm
- emission maximum (in ClC(Cl)Cl): 585 nm
- emission maximum (in c1ccccc1): 582 nm
SMILES: Cc1cc(C)c(B(c2c(C)cc(C)cc2C)c2cc3ccc4ccccc4c3c3c2cc(N(C)C)c2ccccc23)c(C)c1

- emission maximum (in C1CCCCC1): 478 nm
- emission maximum (in CC#N): 480 nm
- emission maximum (in CO): 475 nm
- emission maximum (in ClCCl): 486 nm
- emission maximum (in O): 475 nm
SMILES: c1ccc(-c2nc(-c3cccc4ccccc34)n3ccccc23)cc1

- emission maximum (in ClCCl): 454 nm
SMILES: N#Cc1ccc(N(c2ccccc2)c2ccc3ccc4c(N(c5ccccc5)c5ccc(C#N)cc5)ccc5ccc2c3c54)cc1

- emission maximum (in CC#N): 456 nm
SMILES: COc1ccc(C#Cc2cc3ccccc3oc2=O)cc1

- emission maximum (in ClCCl): 476 nm
SMILES: Cc1cccc2nc(-c3cc(=O)c(OCc4ccccc4)co3)c(NC3CCCCC3)n12

- emission maximum (in C1CCCCC1): 462 nm
- emission maximum (in CC#N): 602 nm
- emission maximum (in CO): 480 nm
- emission maximum (in CS(C)=O): 609 nm
- emission maximum (in c1ccccc1): 497 nm
SMILES: CN(C)c1ccc(C(=O)c2ccccc2)cc1

- emission maximum (in ClCCl): 652 nm
SMILES: Cc1ccc(-c2c3nc(c(-c4ccc(C)cc4)c4ccc([nH]4)c(-c4ccc(OC(=O)C(C)c5ccc(CC(C)C)cc5)cc4)c4nc(c(-c5ccc(C)cc5)c5ccc2[nH]5)C=C4)C=C3)cc1 (centres undefined)

- emission maximum (in C1CCOC1): 442 nm
- emission maximum (in CC#N): 550 nm
- emission maximum (in CS(C)=O): 589 nm
- emission maximum (in ClC(Cl)Cl): 436 nm
SMILES: N=c1oc2ccccc2cc1-c1ccc([N+](=O)[O-])cc1

- emission maximum (in CCO): 447 nm
SMILES: CC(C)(C)OC(=O)NC(C(=O)OCc1ccc2c3cccc4cccc(c5cccc1c52)c43)c1c[nH]c2ccccc12 (centres undefined)

- emission maximum (in C1CCCCC1): 461 nm
- emission maximum (in C1CCOC1): 572 nm
- emission maximum (in CC#N): 642 nm
- emission maximum (in CS(C)=O): 641 nm
- emission maximum (in ClCCl): 610 nm
SMILES: C(=C\c1ncnc2ccccc12)/c1ccc(-c2ccc(N(c3ccccc3)c3ccccc3)cc2)cc1

- emission maximum (in CCCCCC): 622 nm
SMILES: F[B-]1(F)n2c(ccc2-c2ccccc2)C(C(F)(F)F)=C2C=CC(c3ccccc3)=[N+]21
